According to patent publication US20040258771A1 (priority 2001, published 2004):

Experiments:
[1] = system: mice; conditions: cited from earlier work
[2] = system: tumor growth; conditions: has been shown (prior knowledge); cited from earlier work
[3] = system: Ovarian cancer cells; test: Human cancer cell assessment, ovarian; assay type: cell-based
Text: As a quick secondary screen, the additive alone and in combination with the target drug was examined in these human cancer cell lines. The results of TK-211 are shown as a specific example.

| Compound | known reduction of cisplatin side effects [1] | effect on cisplatin efficacy [2] | Cell survival ([3]; 1 μg/ml) | Cell survival ([3]; 2 μg/ml) |
| --- | --- | --- | --- | --- |
| NCCCNCCSP(=O)(O)O [Amifostine] | only to slightly reduce weight loss and hypothermia | slight impairment of cisplatin efficacy |  |  |
| N.N.[Cl][Pt][Cl] [Cisplatin, cis-diamine-dichloroplatinum (II)] |  |  | 3% | 1% |
